Test results taken from patent publication US20220217975A1, “GREEN FORMULATION TO REDUCE VOLATILITY AND LEACHING OF PESTICIDES” (POLITECNICO DI TORINO, priority 2019, published 2022).
≈ marks a conversion by molar mass, not a printed value. Where two headings read alike, the source gives them in different places.

How the values were obtained:
[1] = Volatility test of the active ingredient; type: physicochemical; conditions: 200 mL deionized water, 92 mg active ingredient, stirred open at 300 rpm, over 4 days, FIG. 6
Method: The procedure involved the use of three solutions: • Solution A: formulation of the following patent suspended in 200 mL of deionized water; • Solution B: pure dicamba active ingredient, dissolved in 200 mL of deionized water; • Solution C: 200 mL of deionized water.
All the previous solutions were stirred without lids, caps or parafilm that would hinder the evaporation. The characterization took place by sampling the solutions every 24 hours and analysing them with a spectrophotometer. The withdrawn amount was replenished with deionized water.
Some specifications: • the clay suspended in solution A has an active ingredient content by weight of approximately 92 mg; • in order to make a comparison, and therefore to evaluate whether the formulation actually makes the dicamba less volatile, the amount by weight of the active ingredient inserted in solution B is identical to that adsorbed on the clay, that is 92 mg; • the weighing of the solutions, to evaluate the amount of evaporated substance, also includes the contribution of water. […]

[2] = cited from earlier work
[3] = literature; cited from earlier work
[4] = dicamba active ingredient; cited from earlier work

For `COc1c(Cl)ccc(Cl)c1C(=O)O` [dicamba, 3,6-dichloro-2-methoxybenzoic acid], the “herbicide loss by volatilization (in words)” value [1] is listed as “initial rapid volatilization and to a subsequent slow and progressive loss in mass”, the solubility in water ([2]; pH approximately 2 (no pH adjustment)) is listed as ~8 g/L (≈ 36.2 mM) and the solubility in water ([2]; pH values higher than 4.1) is listed as > 250 g/L. For the same compound, the “half-life time, most frequently reported values” [3] was “lower than 20 days” and the vapour pressure [4] was 2.6·10^−8 atm.
